Read-outs that look alike come from different tables or passages of the source.
Columns and labels:
[1] = biological target: T1, indoleamine 2,3-dioxygenases 2 (IDO2) (Homo sapiens, UniProt Q6ZQW0); assay: Universal IDO1/IDO2/TDO Inhibitor Screening Assay Kit, IDO2; assay type: biochemical; settings: for inhibition at 100 µg/mL: read-out: Inhibition (%) IDO2
T1 construct: purchased BPS Bioscience, Inc. (San Diego, CA, USA)
T1 sequence (Q6ZQW0 1-407): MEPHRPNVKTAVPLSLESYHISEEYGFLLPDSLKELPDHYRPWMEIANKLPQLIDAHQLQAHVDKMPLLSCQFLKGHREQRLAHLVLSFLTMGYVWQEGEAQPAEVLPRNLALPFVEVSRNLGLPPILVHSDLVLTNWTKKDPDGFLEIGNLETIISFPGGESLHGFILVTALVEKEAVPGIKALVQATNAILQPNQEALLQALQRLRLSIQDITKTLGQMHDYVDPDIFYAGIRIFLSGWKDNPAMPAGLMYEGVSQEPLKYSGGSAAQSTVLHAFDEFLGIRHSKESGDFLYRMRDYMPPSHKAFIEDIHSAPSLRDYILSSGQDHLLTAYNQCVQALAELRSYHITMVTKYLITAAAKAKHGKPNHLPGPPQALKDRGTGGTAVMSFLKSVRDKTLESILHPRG
Protocol: (§1) This colorimetric assay is based on the measurement of the ability of IDO1, IDO2 and TDO to convert L-tryptophan into N-formylkynurenine (NFK). The experiments were performed according to the manufacturer’s guidelines. The final concentration of the compounds and extracts in the reaction mixture was 100 µg/mL. The amount of NFK was measured spectrophotometrically at 320 nm using an Epoch BioTek microplate reader (BioTek Instruments, Inc., Winooski, VT, USA). The samples were run in triplicate and the results were expressed as mean ± SEM.

[2] = biological target: T2, tryptophan 2,3-dioxygenase (TDO) (Homo sapiens, UniProt P48775); assay: Universal IDO1/IDO2/TDO Inhibitor Screening Assay Kit, TDO; assay type: biochemical; settings: for inhibition at 100 µg/mL: read-out: Inhibition (%) TDO
T2 construct: purchased BPS Bioscience, Inc. (San Diego, CA, USA)
Protocol: as §1

[3] = DPPH radical scavenging assay; settings: highest concentration 750.0 µg/mL for substances, 2500.0 µg/mL for extracts; ± SEM, n = 3
[4] = biological target: T3, glutathione reductase (GR) (Saccharomyces cerevisiae, UniProt P41921); assay: Effect on glutathione reductase activity; assay type: biochemical; settings: 444.4 μg/mL in the reaction mixture; on GR Inhibition under Reaction Conditions (%): key: -: not active
T3 construct: purchased Sigma Aldrich G3664
Protocol: Sample (20 µL, 5 mg/mL of pure DMSO) was mixed with 10 μL of EDTA solution and 12 μL of GSSG solution and incubated for 5 min at 25 °C; 4 μL of NADPH solution and was then added (all reagents were dissolved in […] sodium phosphate buffer, pH 7.6), and the initial absorbance (340 nm) was recorded. The reaction was then started by addition of 2 U glutathione reductase (2 μL, Sigma Aldrich no G3664), 177 μL of […] sodium phosphate buffer, and the absorbance was recorded after 5 min of incubation at 25 °C. Concentrations of reagents in the final mixture ([…]) were as follows: 0.5 mM EDTA, 10 mM GSSG and 10 mM NADPH. Blank sample was prepared with buffer instead of the sample and background was measured (mixture containing studied sample and buffer only). One unit of enzyme activity has been defined as nMol of NADPH consumed/min·mL sample, in comparison with nMol of NADPH consumed/min in blank (reagent) sample [75].

BChE = BChE (Homo sapiens, UniProt P06276); assay type: biochemical; settings: sample 142.9 μg/mL in the reaction mixture
Protocol: Ellman’s colorimetric method was used with modifications described previously. Tested sample (10 μL) at concentration 5 mg/mL was mixed with 20 μL of AChE (or BChE) solution (0.28 U/mL) and completed after 5 min with 35 μL of ATChI (or BTCh) (1.5 mmol/L), 175 μL of 0.3 mmol/L DTNB (containing 10 mmol/L NaCl and 2 mmol/L MgCl2) and 110 μL with Tris-HCl buffer (50 mmol/L, pH 8.0). Samples containing 10 μL of Tris-HCl buffer instead of the studied sample were run in the same way (“blank” samples). The increase in the absorbance due to the spontaneous hydrolysis of the substrate was monitored using “blank” samples containing ATCh (or BTCh) and DTNB completed to 350 μL with Tris-HCl buffer. All samples were incubated at 22 °C (30 min; incubation time was determined after optimization experiments, details not shown), and the absorbance was measured (405 nm, 96-well microplate reader, Tecan Sunrise, Grödig, Austria). The “false-positive” effect of studied compounds was measured according to Rhee et al. with minor modifications, as described previously: after mixing of the substrate with the enzyme and buffer, the “false-positive” sample was left for incubation. Then, a studied sample and DTNB were added, followed by an immediate measurement of the absorbance.
Reference cholinesterase inhibitors were used for the calculations of results (eserine, neostigmine, magniflorine, rivastigmine and donepezil). For this purpose, for each compound, 16 dilutions in pure DMSO were prepared (2.57–41.14 μg/mL). These solutions (10 μL) were tested as described above and calibration curves were produced.
Each sample was analyzed in at least eight repeats, and all solutions used in a set of analyses were prepared in the same buffer. For calculations, the background of the sample (10 μL mixed with 340 μL of Tris buffer) was measured at 405 nm and subtracted during calculations. Then, the absorbance of the test sample was subtracted from the absorbance of the “blank” sample.

T2 sequence (P48775 whole entry, species assumed): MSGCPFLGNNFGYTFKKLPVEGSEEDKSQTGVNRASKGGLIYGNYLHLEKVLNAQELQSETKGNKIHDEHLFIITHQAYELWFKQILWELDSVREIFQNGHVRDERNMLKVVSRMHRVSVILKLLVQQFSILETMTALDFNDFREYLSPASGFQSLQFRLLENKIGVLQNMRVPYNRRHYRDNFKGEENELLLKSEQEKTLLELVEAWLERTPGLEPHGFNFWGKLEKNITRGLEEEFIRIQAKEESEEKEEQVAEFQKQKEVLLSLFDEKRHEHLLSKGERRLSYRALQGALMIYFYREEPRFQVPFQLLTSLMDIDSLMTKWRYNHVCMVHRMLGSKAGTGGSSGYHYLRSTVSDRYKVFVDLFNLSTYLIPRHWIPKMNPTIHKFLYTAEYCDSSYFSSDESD
Sequence of BChE (P06276 29-602, species assumed): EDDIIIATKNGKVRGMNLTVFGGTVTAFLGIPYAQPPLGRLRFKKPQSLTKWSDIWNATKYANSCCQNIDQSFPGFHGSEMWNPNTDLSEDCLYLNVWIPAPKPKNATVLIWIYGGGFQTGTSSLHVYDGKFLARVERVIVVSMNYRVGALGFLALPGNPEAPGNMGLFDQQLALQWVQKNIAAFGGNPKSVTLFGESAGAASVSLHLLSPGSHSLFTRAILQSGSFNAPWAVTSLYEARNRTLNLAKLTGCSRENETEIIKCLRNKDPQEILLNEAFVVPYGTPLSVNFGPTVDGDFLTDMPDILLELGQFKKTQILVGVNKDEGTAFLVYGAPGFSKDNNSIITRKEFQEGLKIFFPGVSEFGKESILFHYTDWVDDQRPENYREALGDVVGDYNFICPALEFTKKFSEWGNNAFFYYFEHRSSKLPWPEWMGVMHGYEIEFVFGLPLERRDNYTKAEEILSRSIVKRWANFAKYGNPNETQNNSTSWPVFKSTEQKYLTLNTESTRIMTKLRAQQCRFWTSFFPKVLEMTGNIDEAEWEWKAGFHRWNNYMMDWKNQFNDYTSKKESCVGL
T3 sequence (P41921 17-483): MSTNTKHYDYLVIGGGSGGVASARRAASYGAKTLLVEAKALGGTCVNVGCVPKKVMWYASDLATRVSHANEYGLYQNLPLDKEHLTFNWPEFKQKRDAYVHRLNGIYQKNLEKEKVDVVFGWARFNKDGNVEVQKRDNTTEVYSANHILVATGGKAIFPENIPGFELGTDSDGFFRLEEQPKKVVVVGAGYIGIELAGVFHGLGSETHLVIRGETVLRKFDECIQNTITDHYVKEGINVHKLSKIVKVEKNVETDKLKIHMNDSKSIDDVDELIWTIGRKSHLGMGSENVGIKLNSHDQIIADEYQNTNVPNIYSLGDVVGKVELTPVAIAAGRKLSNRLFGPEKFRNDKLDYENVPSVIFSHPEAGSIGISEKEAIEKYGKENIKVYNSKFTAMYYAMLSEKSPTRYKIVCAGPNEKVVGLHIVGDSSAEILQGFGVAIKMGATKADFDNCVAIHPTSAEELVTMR

Row | Structure (SMILES) | inhibition at 100 µg/mL [1] [%] | inhibition at 100 µg/mL [2] [%] | DPPH IC50 [3] [µg/mL] | GR Inhibitory Activity (nMol Depleted NADPH/min Incubation) [4] | inhibition at 444.4 µg/mL ([4]; read-out: GR Inhibition under Reaction Conditions (%)) [%] | inhibition at 100 µg/mL ([1]; 100 µg/mL) [%] | inhibition at 100 µg/mL ([2]; 100 µg/mL) [%] | GR Inhibition under Reaction Conditions (%) [4] | Equivalent Reference Concentration, Donepezil, BChE (BChE) [µg/mL] | Equivalent Reference Concentration, Eserine, BChE (BChE) [µg/mL] | Equivalent Reference Concentration, Magniflorine, BChE (BChE) [µg/mL] | Equivalent Reference Concentration, Neostygmine, BChE (BChE) [µg/mL] | Equivalent Reference Concentration, Rivastigmine, BChE (BChE) [µg/mL] | Inhibition (%) IDO2 ([1]; 100 µg/mL) | Inhibition (%) TDO ([2]; 100 µg/mL)
1 | CC(=O)C1=C(O)C=C2Oc3c(C(C)=O)c(O)c(C)c(O)c3C2(C)C1=O (single isomer, unassigned; (-)) [(−)-Usnic acid, (−)-usnic acid] | < 10 | < 10 | >750.0 | 710.2 ± 42.3 nMol Depleted NADPH/min Incubation | 18.2 ± 2.2 |  |  |  |  |  |  |  |  |  | 
2 | COc1cc(C)c(C(=O)Oc2cc(C)c(C(=O)O)c(O)c2)c(O)c1 [Evernic acid, evernic acid] |  |  | >750.0 |  |  | < 10 | < 10 | - | 9.5 ± 0.0 | 10.9 ± 0.1 | 52.3 ± 0.1 | 16.5 ± 0.2 | 85.9 ± 0.1 |  | 
3 | Cc1cc(O)c(C=O)c2c1C(=O)Oc1c(CO)c(O)c3c(c1O2)C(O)OC3=O (stereo not shown) [Salazinic acid, salazinic acid] |  |  | >750.0 |  |  | < 10 | < 10 | - | 7.9 ± 0.3 | 9.0 ± 0.1 | 43.2 ± 0.2 | 13.6 ± 0.1 | 70.9 ± 0.3 | did not exhibit any inhibition effect | did not exhibit any inhibition effect
